Measured values reported in patent US10301264B2, “Compounds useful for treating ocular neovasculan” (The University of Nottingham, priority 2012, dated 2019).
Values after ≈ are worked out from the molar mass of the structure shown.

Assays:
[1] = tested on: VEGF165 mRNA isoforms in primary RPE cells; assay: RT-PCR for VEGF165 / VEGF165b mRNA in primary RPE cells; assay type: cell-based, human; conditions: 100 nM, FIG. 9A
Description: ID NO: 5)). […] Cells were treated with […]6 and 7 and the PCR repeated.

[2] = tested on: VEGF165b protein in RPE cells; assay: Western blotting for VEGF165b in RPE cells; assay type: cell-based, human; conditions: 100 nM, FIG. 9B
Description: Protein was extracted from RPE cells treated for 48 hours with SPHINXes and subjected to western blotting for VEGF165b using anti-VEGF165b antibody as previously described (Gammons et al Invest. Ophthahnol. Vis. Sci. 54(9) 6052-6062).

[3] = tested on: SRSF1 phosphorylation in PC3 prostate cancer cells; assay: Inhibition of SRSF1 phosphorylation induced by EGF activation; assay type: cell-based; conditions: 10 μM, 1 hr, 10 nM EGF
Description: Inhibition of SRSF1 Phosphorylation Induced by EGF Activation. […] Cells were lysed, and subjected to immunoblotting using an antibody to phosphorylated SR proteins (MAB104) and an antibody to tubulin as a loading control. Intensity was measured for SRSF1 and SRSF5 bands using ImageJ Intensity. Phosphorylation is calculated as the increase in intensity of the band over untreated relative to that for EGF with vehicle.

laser-induced CNV [4] = assay: Laser-induced mouse CNV model, intravitreal injection; assay type: in vivo; conditions: discussion summary, route not stated
Description: (§1) Laser Lesion Induction Protocol
(§2) Six to eight week-old C57/B6 mice (B&K Laboratories) and adult Norway-Brown rats (Harlan Laboratories) were anaesthetized with an intraperitoneal injection of a mixture of 50 mg/kg ketamine and 0.5 mg/kg medetomidine. The pupils were dilated with 2.5% phenylephrine hydrochloride and 1% tropicamide. Four photocoagulation lesions were delivered with a krypton red laser (Mice: 250 mW, 0.01 s, 75 μm, Rats: 200 mW, 0.01 s, 75 μm, IRIS Medical 810 nm Oculight Slx laser) between the retinal vessels in a peripapillary distribution at a distance of 1-2 disc-diameters in each eye. Only laser lesions with a subretinal bubble at the time of treatment were included in the study. […] Animals were culled on either day 4 or day 14 and eyes were either unfixed for retinal dissection and protein extraction, or fixed and enucleated and choroids stained for isolectin-B4 and examined.

laser-induced CNV [5] = assay: Laser-induced mouse CNV model, topical eye drops; assay type: in vivo; conditions: mouse, topical
Description: as §1, §2
We performed a dose response trial investigating SRPIN340 topical eye drops. SRPIN340 was dissolved in a previously described drug delivery vehicle (Doukas et al., 2008) and administered twice daily. Fourteen days following laser insult choroids were fixed and flatmounted for isolectin staining and retinae were extracted for RNA analysis.

IC50 (laser-induced CNV [5]; FIG. 11, read-out: IC50 for inhibition of CNV as an eye drop): 0.225 µg/mL (≈ 0.462 µM)
SMILES: CN(C)CCN1CCN(c2ccc(C(F)(F)F)cc2NC(=O)c2ccc(-c3ccncc3)o2)CC1 [SPHINX7]
amount of VEGF165 at RNA level [1]: reduce the amount of VEGF165 | VEGF165b at protein level [2]: increase VEGF165b | SRSF1 phosphorylation induced by EGF [3]: inhibit SRSF1 phosphorylation | area of neovascular lesions, mouse laser-induced CNV model (laser-induced CNV [4]): achieving significance | CNV formation, eye drop (laser-induced CNV [5]): significantly inhibited CNV formation
